Laboratory results: US20130224296A1, “Drug Formulations Using Water Soluble Antioxidants” (Bristol-Myers Squibb Company, priority 2010, published 2013)
Values after ≈ are worked out from the molar mass of the structure shown.

Experiments:
[1] = Level of formaldehyde and formic acid in antioxidant containing Opadry films (GC); format: physicochemical; conditions: Opadry II white film, sealed vials 60° C. for 5 days; 0.2% w/v BHT or 2% w/v ascorbic acid or propyl gallate in suspension
Description: Five hundred μL of the coating suspension was dispensed in 5 mL scintillation vials. Open vials were kept overnight at 40° C. to form a film. The vials were rubber stoppered and sealed. The sealed vials were kept at 60° C. for 5 days and analyzed for formaldehyde and formic acid levels by a GC method. […] These concentrations are on the higher end of the recommended use concentrations for each antioxidant and were used to test their maximum efficacy.

physchem = conditions: water

Row | Level of formaldehyde [1] | Level of formic acid [1] | solubility (physchem) | Structure (SMILES)
1 | Not detected | 184 ppm | – | O=C1O[C@H]([C@@H](O)CO)C(O)=C1O [Ascorbic acid]
2 | Not detected | 60 ppm | 3330 µg/mL (≈ 15.7 mM) | CCCOC(=O)c1cc(O)c(O)c(O)c1 [Propyl gallate]
3 | 95 ppm | 1159 ppm | 0.6 to 1.1 µg/mL (≈ 0.00272 to 0.00499 mM) | Cc1cc(C(C)(C)C)c(O)c(C(C)(C)C)c1 [Butylated hydroxy toluene (BHT), Butylated hydroxy toluene]
